One may read the Cmax as the highest concentration seen after dosing. Broadly, the clearance is the rate of elimination divided by the concentration. Higher therefore signals a high capacity for elimination. By Vd is commonly meant the apparent volume that relates the amount in the body to the concentration in plasma or blood. Higher therefore signals wide distribution into tissue. What is called MRT is the average time that molecules of a dose stay in the body. As usually defined, the half-life is the time needed for the level to fall by half in the phase considered. Low values mean fast loss, high ones slow loss. The AUC is concentration integrated over time. The low end stands for less exposure, the high end for more exposure. Usually bioavailability stands for the share of a dose that reaches the circulation, judged against a reference dose that is usually intravenous. A high value points to much systemic uptake. Broadly, the IC50 is the concentration that inhibits the measured activity by half. High values mean lower potency, low ones higher potency. The Tmax is the time at which the peak concentration occurs. For orientation: inhibition means the percentage by which the read-out fell short of the control. A low value points to little suppression.

The nature of data set [1]: in vivo. To be noted: mouse, po, 1 mg/kg.
Data set [2] can be described thus: in vivo. The note with it: dog, iv, 5 mg/kg.
Data set [3] can be described thus: in vivo. The note with it: mouse, iv, 1 mg/kg.
Data set [4] in a line: in vivo. The note with it: mouse, iv, 1 mg/kg. This is another data set of the same source.
The nature of data set [5]: in vivo. The note with it: dog, iv, 5 mg/kg. The source holds these as a separate data set.
Data set [6] is described as follows: in vivo. The note with it: mouse, iv, 1 mg/kg. This is another data set of the same source.
Data set [7] is described as follows: in vivo. To be noted: mouse, plasma, po, 1 mg/kg.
Data set [8] can be described thus: in vivo. To be noted: dog, iv, 5 mg/kg. This is another data set of the same source.
The nature of data set [9]: in vivo. The note with it: dog, po, 10 mg/kg.
The subject of data set [10] is PBMC. Description: cells. The note with it: Homo sapiens.
Data set [11] can be described thus: in vivo. The note with it: mouse, po, 1 mg/kg. This is another data set of the same source.
A short description of data set [12]: in vivo. To be noted: dog, po, 10 mg/kg. The source holds these as a separate data set.
Data set [13] can be described thus: in vivo. The note with it: dog, po, 10 mg/kg. The source holds these as a separate data set.
A short description of data set [14]: in vivo. To be noted: mouse, iv, 1 mg/kg. This is another data set of the same source.
A short description of data set [15]: in vivo. To be noted: mouse, po, 1 mg/kg. The source holds these as a separate data set.
The target of data set [16] is hERG (KCNH2) (Homo sapiens, UniProt Q12809). Kind of data set: in vitro.
Data set [17] is described as follows: in vivo. To be noted: dog, iv, 5 mg/kg. This is another data set of the same source.
Data set [18] can be described thus: in vivo. The note with it: dog, plasma, po, 10 mg/kg.

hERG (KCNH2), sequence (Q12809 whole entry): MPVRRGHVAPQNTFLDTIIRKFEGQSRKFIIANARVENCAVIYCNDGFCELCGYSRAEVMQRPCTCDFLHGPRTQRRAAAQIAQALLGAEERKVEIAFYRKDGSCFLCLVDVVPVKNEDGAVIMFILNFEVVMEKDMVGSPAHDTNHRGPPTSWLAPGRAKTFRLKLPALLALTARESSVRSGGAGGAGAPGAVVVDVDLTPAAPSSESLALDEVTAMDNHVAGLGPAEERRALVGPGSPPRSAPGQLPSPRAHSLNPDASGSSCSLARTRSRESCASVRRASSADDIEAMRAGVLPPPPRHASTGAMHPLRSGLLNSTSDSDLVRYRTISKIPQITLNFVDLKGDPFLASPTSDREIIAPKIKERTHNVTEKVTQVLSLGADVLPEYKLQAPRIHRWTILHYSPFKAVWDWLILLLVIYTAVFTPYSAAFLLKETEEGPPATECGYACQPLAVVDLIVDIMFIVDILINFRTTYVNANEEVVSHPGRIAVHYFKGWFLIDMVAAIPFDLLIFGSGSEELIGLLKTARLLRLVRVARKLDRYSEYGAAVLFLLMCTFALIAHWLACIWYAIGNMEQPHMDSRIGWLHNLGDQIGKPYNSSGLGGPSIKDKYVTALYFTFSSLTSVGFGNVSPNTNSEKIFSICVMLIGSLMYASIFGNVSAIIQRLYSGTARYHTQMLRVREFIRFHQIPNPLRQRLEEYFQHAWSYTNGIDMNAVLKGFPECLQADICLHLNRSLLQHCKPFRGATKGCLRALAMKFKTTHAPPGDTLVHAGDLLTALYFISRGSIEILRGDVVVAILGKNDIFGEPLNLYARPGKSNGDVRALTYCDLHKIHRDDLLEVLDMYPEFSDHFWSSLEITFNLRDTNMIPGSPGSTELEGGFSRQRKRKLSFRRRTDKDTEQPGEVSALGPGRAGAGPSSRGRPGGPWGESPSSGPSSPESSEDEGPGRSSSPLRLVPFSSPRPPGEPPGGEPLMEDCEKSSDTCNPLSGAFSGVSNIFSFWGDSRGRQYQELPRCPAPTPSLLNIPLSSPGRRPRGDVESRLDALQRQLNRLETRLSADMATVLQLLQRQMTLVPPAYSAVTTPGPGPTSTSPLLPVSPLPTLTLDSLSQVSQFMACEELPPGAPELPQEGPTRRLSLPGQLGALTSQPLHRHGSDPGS

With `CN1C(=O)N(c2cc(Cl)cc(Cl)c2)C(=O)[C@]12CN(Cc1cc(C(=O)O)cs1)C[C@H]2c1ccc(C#N)cc1`, the Cmax in data set [1] is 0.083 µM; in [12], 18.9 µM. Moreover, the clearance in data set [2] came out at 3.6 mL/min/kg; in data set [14], 32 mL/min/kg. The Vd in data set [3] was 8.5 L/kg; in [8], 0.7 L/kg. The MRT turned out to be 4.4 h in data set [4] and 3.3 h in data set [5]. In addition, the half-life is 5.4 h in [6] and 3.5 h in data set [17]. Further, the AUC in data set [7] came to 0.306 µM·h; in [18], 115 µM·h. The bioavailability in data set [9] amounted to 100%; in [11], 41%. This compound also returned an IC50 in data set [10] of 280 nM. In addition, the Tmax in data set [13] turned out to be 2 h; in data set [15] it was 0.25 h. In data set [16], this compound yielded an inhibition at 30 µM of 24%.
